According to patent US20220387358A1, “CERAMIDE ANALOG SACLAC MODULATES SPHINGOLIPID LEVELS AND MCL-1 SPLICING TO INDUCE APOPTOSIS IN ACUTE MYELOID LEUKEMIA” (University of Virginia Patent Foundation, priority 2019, published 2022):

Tests used:
[1] = test system: sphingosine in the liver; assay: Sphingosine in the liver after SACLAC administration; assay type: in vivo, Swiss Webster mice
[2] = test system: OCI-AML2 cells; assay: Caspase 3/7 activation; assay type: cell-based, human; settings: increasing doses; 24 hours
Protocol: (§1) Apoptosis in cell lines was assessed after treating 2.5×10^5 cells per ml with drug or vehicle in a 48-well plate for the indicated time points and doses. Primary human AML cells were pre-incubated with SFEM for 48 hours before plating 2×10^5 cells in 24-well plates for the indicated times point and doses. Samples were stained using the Muse Annexin V & Dead Cell Kit (Millipore #MCH100105). Change in mitochondrial membrane potential in cell lines was measured with the Muse® MitoPotential Kit (#MCH100110, MilliporeSigma, Burlington, Mass., United States of America). Caspase activation was measured using the Muse® Caspase 3/7 Assay Kit (#MCH100108, MilliporeSigma, Burlington, Mass., United States of America). For rescue experiments, cells were plated at 2.5×10^4 well in a 96-well plate 24 hours after electroporation. Cells were treated with DMSO or […] for 48 hours and apoptosis was detected as stated above. All kits were used according to manufacturer's protocol. Cells were then analyzed using the Muse® Cell Analyzer (MilliporeSigma, Burlington, Massachusetts, United States of America) (35,36). Experiments included positive and negative controls for proper analysis.

[3] = test system: normal CD34+ cells; assay: Cell viability of normal samples ([…]-GLO); assay type: cell-based; settings: Homo sapiens; CD34+ (n=4); 24 hours
From the text: (§2) Healthy donor samples: PBMCs from healthy donors were enriched using the Ficoll-Paque gradient separation method. CD34+PBMCs mobilized with G-CSF were obtained from the University of Virginia Health System Blood Bank (Charlottesville, Va., United States of America). CD34+ cells were isolated from PBMCs with a Human CD34 MicroBead Kit (#130-046, Miltenyi Biotec, Bergisch Gladbach, Germany) using the autoMACS Pro Separator (#130-092-545, Miltenyi Biotec, Bergisch Gladbach, Germany). For cell viability, cell lines were plated at 2.5×10^4 cells per well in a 96-well plate and treated with […] or DMSO vehicle (0.4% of total volume) for the indicated time points and doses. […] Conversion of MTS to formazan product was measured by absorbance at 490 nm using a BioTek Cytation 3 plate reader (BioTeck, Winooski, Vt., United States of America). Absorbance was normalized to DMSO control, which was defined as 100% viability. […] After 15 minutes, luminescence was read on a BioTek Cytation 3 plate reader (BioTek, Winooski, Vt., United States of America). Absorbance was normalized to DMSO control, which was defined as 100% viability.

[4] = test system: PBMCs from healthy donors; assay: Cell viability of normal samples ([…]-GLO); assay type: cell-based; settings: Homo sapiens, PBMC; PBMCs (n=6); 24 hours
From the text: as §2

[5] = test system: OCI-AML2 cells; assay: Western blot of SF3B1, Mcl-1S and Mcl-1L protein expression; assay type: cell-based, human; settings: 24 hours
Protocol: Cells were plated at 2.5×10^5 cells per ml in 6-well plates and treated with drug, vehicle or siRNA at the indicated doses and time points. Cells were harvested, washed with PBS and lysed prior to preparation of protein extracts for western blotting.
More particularly, cells were lysed with RIPA buffer (#R0278, Sigma, St. Louis, Mo., United States of America) containing phosphatase inhibitor cocktails 2 and 3 (Sigma #P5726, #P0044) and protease inhibitor cocktail (#P8340, Sigma, St. Louis, Mo., United States of America). Protein was quantified using a bicinchoninic acid (BCA) protein assay kit (#23225, Pierce, Waltham, Mass., United States of America). Samples were resolved on a Bolt 4-12% SDS-PAGE gel (#NW00082, ThermoFisher Scientific, Waltham, Mass., United States of America) and transferred to PVDF membrane (#170-4274, Bio-Rad Laboratories, Hercules, Calif., United States of America). Antibodies were obtained from Cell Signaling Technology (Danvers, Mass., United States of America) unless indicated otherwise. Primary antibodies used were: Mcl-1 (#5453, RRID #AB 10694494), SF3B1 (#14434, RRID #AB 2798479), β-actin (#3700, RRID #AB_2242334) and AC (BD Biosciences #612302 (San Jose, California, United States of America), RRID #AB_399617). Secondary antibodies used were HRP-linked goat anti-mouse (#7076, RRID #AB_330924) or goat anti-rabbit IgG (#7074, RRID # AB_2099233). Clarity Max Western ECL Substrate (#1705062, Bio-Rad Laboratories, Hercules, Calif., United States of America) was added to visualize relative protein expression by chemiluminescence using the Bio-Rad ChemiDoc MP imaging system (Bio-Rad Laboratories, Hercules, Calif., United States of America). Quantification was done using Bio-Rad ImageLab 6.0.1 software (Bio-Rad Laboratories, Hercules, Calif., United States of America). For quantification, bands were normalized to β-actin as a loading control.

[6] = test system: primary AML patient samples; assay: Apoptosis by flow cytometry (Annexin V); assay type: cell-based, human; settings: seven patient samples; 48-hour treatment
Protocol: as §1

CCCCCCCCCCCCCCC[C@@H](O)[C@H](CO)NC(=O)CCl [SACLAC, N-[(2S,3R)-1,3-dihydroxyoctadecan-2-yl]2-chloroacetamide]
time that liver sphingosine levels were reduced after treatment [1]: at least 6 hours
caspase 3/7 activation [2]: dose-dependent caspase activation
EC50 [3]: 4 µM
EC50 [4]: 7.4 µM
SF3B1 protein expression ([5]; SACLAC): reduced
splicing factor SRSF1 ([5]; SACLAC): not affected
increase in the ratio of Mcl-1S to Mcl-1L ([5]; increasing doses of SACLAC): 3 fold
upregulation of the Mcl-1S isoform ([5]; increasing doses of SACLAC): 10 fold
apoptosis reached by more than half the samples [6]: ≥ 80%
